Measurements reported in PubChem BioAssay AID449764 (Southern Research Specialized Biocontainment Screening …, 2010).
Where a SMILES comes first, the peptide text is derived from it. [ ]: non-standard residue; d: D form. The star is where a group is joined. ξ: configuration not given here. ξF = NC(Cc1ccccc1)C(=O)O; Cbz = O=C(OCc1ccccc1)*

System: Mycobacterium tuberculosis H37Rv growth inhibition, no glycerol
Assay: Confirmatory growth inhibition assay, Mycobacterium tuberculosis H37Rv, absence of glycerol (AID 449764);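 further: growth read after 7 days of incubation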
Details: for IC90: measured here: IC90 growth inhibition

Structure (SMILES)	IC50 [µM]	IC90 [µM]
CCOC(=O)c1ccc(-c2c(-c3ccc4c(c3)OCO4)noc2C)cc1F	53.5	> 100
O=C(OCC#CCSc1nnc(-c2cccc3ccccc23)o1)c1cccs1	47.3	> 100
CCn1cc([N+](=O)[O-])c(C(=O)N2N=C(c3ccc4ccccc4c3)CC2c2ccccc2O)n1 (stereo unspecified)	50.1	> 100
COc1ccc(C)c2sc(N(CCN(C)C)C(=O)/C=C/c3cccs3)nc12	30.6	36.1
Cc1cc(C)c2oc(-c3ccc(C)c(NC(=S)NC(=O)/C=C/c4ccco4)c3)nc2c1	77.5	> 100
CC(CC(=O)Nc1ccc(Cl)c([N+](=O)[O-])c1)c1ccccc1 (stereo unspecified)	18	29.4
CCOC(=O)c1c(-c2ccc(OC)cc2)csc1NC(=O)CNCc1ccco1	22.3	25.5
C/C(=N\Nc1ccc(S(=O)(=O)N2CCCCC2)cn1)c1cccc(Br)c1	39.2	> 100
Cc1cc(OC(=O)c2cccs2)c2c3c(c(=O)oc2c1)CCCC3	4.18	8.9
CS/C(Nc1cc(Cl)ccc1Cl)=C(/C#N)C(=O)c1ccco1	20.4	> 100
c1ccc(CN2CCN(c3nc(NCc4ccco4)c4ccccc4n3)CC2)cc1	17.2	22.6
C=C(C)C1CC=C(CN2CCN(Cc3ccccc3)CC2)CC1 (stereo unspecified)	17.8	22
COc1ccc(N=c2ssnc2Cl)cc1	90.6	> 100
COc1ccccc1-n1cc2c([N+](=O)[O-])cc([N+](=O)[O-])cc2n1	1.98	5.89
CCCCNC(=S)N/N=C/c1cccc(OCC)c1O	10.8	11.9
CCOC(=O)C1=C(C)NC(SCC(=O)Nc2nc(C)cs2)=C(C#N)C1c1cccs1 (stereo unspecified)	31.3	49.8
CCOC(=O)c1sc2nc3n(c(=O)c2c1C)CCC(C)CC3 (stereo unspecified)	23	26.4
Nc1nnnn1/N=C/C(Br)=C/c1ccccc1	5.6	10.9
CCOC(=O)CNC(=O)CNC(=O)c1nn(-c2ccc(OC)c(Cl)c2)c(=O)c2ccccc12	38	> 100
N#Cc1nccnc1S(=O)(=O)c1cccs1	59.3	73.3
CN(C)C(=O)C1C2NC(=S)N(c3ccc(Cl)cc3)C1(C)Oc1ccc(Cl)cc12 (stereo unspecified)	31.7	55.5
NC(=S)N=Nc1ccc(NN=C(N)N)cc1	19.3	27.6
O=C(COC(=O)c1cccs1)c1ccccc1	45.8	> 100

Structure (SMILES)	IC50 [µM]	IC90 [µM]
CN(C)C(=O)c1ccc(NC(=O)COC(=O)c2cc3c(s2)CCCCC3)cc1	91.6	> 100
CN1CC=C(/C=C/c2ccc(-c3ccccc3)cc2)CC1	24.5	28
Nc1nc(CN2CCN(c3ccccc3F)CC2)nc(N2CCCc3ccccc32)n1	12	24.2
N#Cc1c([N+](=O)[O-])cc([N+](=O)[O-])cc1S(=O)(=O)Cc1ccccc1	22.6	25.9
COc1ccc(-c2cc(-c3ccc(OC)cc3)[nH]n2)cc1	–	> 50
CCCCCCCCNC(C)C(O)c1ccc(SC(C)C)cc1 (stereo unspecified)	25	26.5
O=C1/C(=N\S(=O)(=O)c2cccs2)C([n+]2ccc(CCCc3ccccc3)cc2)=C([O-])c2ccccc21	22.8	25.7
Cc1ccc(NS(=O)(=O)c2ccc(NC(=O)CN(c3cc([N+](=O)[O-])ccc3C)S(C)(=O)=O)cc2)c(C)c1	33.1	> 100
C=C(C)C1Cc2c(C)nn(-c3nc(C)cc(C)n3)c2C1 (stereo unspecified)	8.78	22.1
Cn1nc([N+](=O)[O-])nc1Sc1ccc(C(C)(C)C)cc1	8.88	17.1
CC1CCc2c(sc3ncnc(NCCCOC(C)C)c23)C1 (stereo unspecified)	59.3	74.2
OCCCNc1cc(-c2ccnc(Nc3cccc(Cl)c3)n2)ccn1	73.3	96
COC(=O)c1ccc2c(c1O)C(=O)c1ccccc1C2=O	83.6	89.4
COc1cc(C(=O)N/N=C/c2cc([N+](=O)[O-])cs2)cc(OC)c1OC	8.58	> 100
Cc1cc(-c2nnc3n2CCCCC3)c(C)n1-c1ccccc1	45.3	73.8
Cc1cccc(/C=c2\s/c(=C\C(=O)C(C)(C)C)[nH]c2=O)c1	12.4	31.7
Cc1c(C(=O)Oc2cccc3ccccc23)cnn1-c1ccccc1	22.8	26.1
Cn1c(=O)c2c3c(sc2n2c(SCC(N)=O)nnc12)CC(C(C)(C)C)CC3 (stereo unspecified)	24.7	41.7
c1ccc2c(C3=NNC(=NC4CCCCC4)SC3)c[nH]c2c1	37.7	45.4
CN1/C(=C/C(=O)c2nc(S(C)(=O)=O)ncc2Cl)C(C)(C)c2ccccc21	6.77	13.1
O=C(CN1CCN(C(=O)COc2cccc(F)c2)CC1)Nc1ccc(Cl)c(C(F)(F)F)c1	50.4	57.4
CCCc1ccc(NC(=O)C2CCN(c3cnccn3)CC2)cc1	67.2	82.7
c1ccc(-n2cnc3cc(NCc4cccs4)ccc32)cc1	89	> 100

Structure (SMILES)	IC50 [µM]	IC90 [µM]
COc1ccc(NCc2nc3ccccc3n2CCOc2ccccc2)cc1	69.5	88.6
CC1C/C(=C\c2cccnc2)C(=O)/C(=C/c2cccnc2)C1 (stereo unspecified)	5.16	8.18
CCSc1ncc(/C=N/Nc2ccccc2)n1C	82.6	> 100
Cc1nc(NC(=O)c2ccccc2)sc1C1(C)CC(c2ccc(OC(F)(F)F)cc2)=NO1 (stereo unspecified)	29.7	60.4
CC(C)(C)C1CCc2sc(-c3nnc(CCl)o3)cc2C1 (stereo unspecified)	5.74	19.5
CCn1cc(Br)c(C(=O)Nc2ccc(C(=O)OC(C)C)cc2)n1	39.3	59.5
CCc1ccc(NC2=NCC(c3ccccc3)S2)cc1 (stereo unspecified)	8.96	16.7
Cc1ccc(C(C(=O)NCC2CCCO2)N(Cc2ccccc2)C(=O)c2ccc(-c3ccccc3)[nH]2)o1 (stereo unspecified)	60.9	> 100
CCOc1cc2c(cc1OCC)-n1cccc1C(c1ccc(C(C)C)cc1)NC2 (stereo unspecified)	20.2	28.7
O=C(OCc1ccc([N+](=O)[O-])cc1)c1cc2ccccc2oc1=O	12	> 100
COC(=O)c1[nH]c2cc(OC)ccc2c1NC(=O)CN1CCN(c2cccc(C)c2)C(C)C1 (stereo unspecified)	38.1	50.9
Cc1cc(NC(=O)c2cc(-c3ccncc3)nc3c(C)cccc23)no1	93.1	> 100
CCOC(=O)CNC(=O)C(Cc1ccccc1)NC(=O)OCc1ccccc1 (stereo unspecified) (Cbz-[ξF]-Gly-OEt)	3.04	3.46
Cc1c(C(=O)Nc2nc3ccccc3[nH]2)oc2c(Cl)cccc12	80.4	> 100
COc1ccc(-c2nc(CN3CCN(c4cc(C)nc(C)c4)CC3)c(C)o2)c2ccccc12	23.4	25.6
CC(=NCc1ccc2c(c1)OCO2)C1=C(O)c2ccccc2C1=O	< 0.2	1.4
CCOC(=O)N1CCC(n2c(SCC(=O)OCc3ccccc3)nc3ccsc3c2=O)CC1	61.6	> 100
C#CCOc1ccc2c(c1)c(C(C)=O)c(C)n2Cc1ccccc1	–	> 100
Cc1ccc(C(=O)c2cc(C)sc2NC(=O)CN2CCN(C(=O)c3ccco3)CC2)cc1	14.9	27.4
CCN1CCN(c2oc(COc3ccc(-c4ccccc4)cc3)nc2C#N)CC1	36.4	47.6
CSc1ccc(C(=O)C2CCCN(C(=O)c3ccc4c(c3)no[n+]4[O-])C2)cc1 (stereo unspecified)	1.65	2.53
O=[N+]([O-])c1ccc(O)c(-c2cc(C(F)(F)F)nc(-c3ccccc3)n2)c1	20.4	22.1
CCc1ccc(N=Nc2ccc(O)c3[nH]cnc23)cc1	40.7	> 100

Structure (SMILES)	IC50 [µM]	IC90 [µM]
O=C1c2ccccc2-c2onc3ccc(Oc4ccccc4)c1c23	10.3	14.4
Cc1nonc1OCCNCCNc1ccc([N+](=O)[O-])c2cccnc12	17.7	31.4
CCc1ccc(C2=NN(c3ccc(S(N)(=O)=O)cc3)C(c3ccc(F)cc3)C2)cc1 (stereo unspecified)	40.5	53.3
COC(=O)C1=C(c2ccc(OCc3ccccc3)cc2)C[C@@H]2CC[C@H]1N2C(=O)NC1CCN(Cc2ccccc2)CC1	25.3	29.1
CC1CCc2c(C(=O)Nc3nccs3)csc2C1 (stereo unspecified)	41.9	80.3
CN(C)c1ccc(CNc2nc(-c3ccccc3)nn2S(C)(=O)=O)cc1	14.2	26.5
N#Cc1c(SCC(N)=O)nsc1SCc1ccccc1Cl	45.8	> 100
O=c1oc2ccccc2c(Nc2ccccc2O)c1[N+](=O)[O-]	9.46	13.9
Clc1ccc(Nc2ccc(-n3ccnc3)nn2)cc1Cl	21.9	24.8
Cc1cc(C)n(-c2nc(NCCN(C)C)c3c4c(sc3n2)CCCC4)n1	15.6	21.4
CCn1c(SCC(=O)OC2CCCCC2)nc2ccccc2c1=O	40.3	55.1
COc1ccc(-c2nnc3sc(C4CCCCC4)nn23)cc1OC	45.6	51.6
CN(C)N=Nc1nc[nH]c1C(N)=O	5.04	8.38
CCN1/C(=C/C=C/c2oc3ccc(-c4ccccc4)cc3[n+]2CC)Oc2ccc(-c3ccccc3)cc21	5.81	6.37
C=CCOc1ccc(C2=NOC(C(=O)Nc3ccc4c(c3)OCCO4)C2)cc1 (stereo unspecified)	41.4	60
COC(=O)COc1ccc(-c2nn(C)c(=O)c3ccccc23)cc1	13.1	58.5
Nc1nonc1C(=O)NCCNCc1c(OCc2ccccc2F)ccc2ccccc12	39.5	54.4
CCOC(=O)c1ccc(NC(=O)C(C)Sc2nc(O)c(-c3ccccc3)c(=O)[nH]2)cc1 (stereo unspecified)	18.4	35
Cc1ccc(NC(=O)C2=C(O)CCn3c2nc2ccccc23)cc1	13.5	> 100
CCc1ccc(NCc2ccc(OC)c(Cn3ccnc3)c2)cc1	21.5	23.7
